Experiments:
[1] = test system: MBNL1 exon 5 inclusion in DM1 myotubes; test: Myotube splicing rescue assay (MBNL1 exon 5 inclusion); type: cell-based, human; conditions: 48-hour incubation
r(CUG)12-MBNL1 complex = test: Inhibition of the r(CUG)12-MBNL1 complex measured by TR-FRET; type: biochemical; conditions: 80 nM RNA, 60 nM MBNL1-His6

SMILES | MBNL1 % splicing rescue at 10 μM [1] [%] | IC50 (r(CUG)12-MBNL1 complex; Table M) [µM] | MBNL1 % splicing rescue at 1 μM [1] [%] | IC50 (r(CUG)12-MBNL1 complex; Table L) [µM]
CN(C)CCCCCCOc1ccc2nc(-c3ccc(-c4nc5ccc(OCCCCCCN(C)C)cc5[nH]4)cc3)[nH]c2c1 [Compound 212] | 77.0 | 5.3 |  | 
O=C(NCCN1CCN(CCNC(=O)c2ccc3nc(-c4ccc(-c5nc6ccc(C(=O)NCCN7CCCCC7)cc6[nH]5)cc4)[nH]c3c2)CC1)NCCN1CCN(CCNC(=O)c2ccc3nc(-c4ccc(-c5nc6ccc(C(=O)NCCN7CCCCC7)cc6[nH]5)cc4)[nH]c3c2)CC1 [Compound 406, N,N′-((((carbonylbis(azanediyl))bis(ethane-2,1-diyl))bis(piperazine-4,1-diyl))bis(ethane-2,1-diyl))bis(2-(4-(6-((2-(piperidin-1-yl)ethyl)carbamoyl)-1H-benzo[d]imidazol-2-yl)phenyl)-1H-benzo[d]imidazole-6-carboxamide)] | 54.3 | 3.03 | 9.4 | 
O=C(NCCN1CCCCC1)c1ccc2nc(-c3ccc(-c4nc5ccc(C(=O)NCCN6CCNCC6)cc5[nH]4)cc3)[nH]c2c1 [Compound 126, N-(2-(piperazin-1-yl)ethyl)-2-(4-(6-((2-(piperidin-1-yl)ethyl)carbamoyl)-1H-benzo[d]imidazol-2-yl)phenyl)-1H-benzo[d]imidazole-6-carboxamide] | 29.6 |  | 16.6 | 9.5
COc1cc(-c2nc3ccc(C(=O)NCCCN(C)C)cc3[nH]2)c(OC)cc1-c1nc2cc(OCCCN(C)C)ccc2[nH]1 [Compound 299] | −34.9 | 10.3 |  | 
c1cc(-c2nc3cc(-c4ccc5[nH]c(-c6ccc(OCCN7CCCCC7)cc6)nc5c4)ccc3[nH]2)ccc1OCCN1CCCCC1 [Compound 350] |  | 16.9 | 47.2 | 
C#CCCCCN(C)CCNC(=O)c1ccc(-c2nc3cc(-c4ccc5[nH]c(-c6ccc(OCCCN(C)C)cc6)nc5c4)ccc3[nH]2)cc1 [Compound 403] | 90.5 | 5.6 |  | 
CN(C)CCCOc1ccc2nc(-c3cc(O)c(-c4nc5ccc(OCCCN(C)C)cc5[nH]4)cc3O)[nH]c2c1 [Compound 278] | 48.2 | 38.1 | 79.7 | 
CN(C)CCCOc1cc2[nH]c(-c3ccc(-c4nc5cc(F)c(OCCCN(C)C)cc5[nH]4)c(F)c3)nc2cc1F [Compound 301, (3-[[2-(4-[6-[3-(dimethylamino)propoxy]-5-fluoro-1H-1,3-benzodiazol-2-yl]-3-fluorophenyl)-5-fluoro-1H-1,3-benzodiazol-6-yl]oxy]propyl)dimethylamine] | 19.4 | 5.3 |  | 
CN(C)CCCOc1ccc2nc(-c3ccc(-c4nc5ccc(OCCCN(C)C)cc5[nH]4)c(OCCO)c3)[nH]c2c1 [Compound 259, 2-(2,5-bis(6-(3-(dimethylamino)propoxy)-1H-benzo[d]imidazol-2-yl)phenoxy)ethanol] | −12.7 | 7.2 |  | 
O=C(NCCN1CCC(O)CC1)c1ccc2[nH]c(-c3ccc(-c4nc5ccc(C(=O)NCCN6CCC(O)CC6)cc5[nH]4)cc3)nc2c1 [Compound 146] | 7.1 |  | 0.8 | 15.8
CN(C)CCCOc1ccc2nc(-c3ccc(-c4nc5ccc(OCCCN(C)C)cc5[nH]4)c(Cl)c3)[nH]c2c1 [Compound 257, 3,3′-((2,2′-(2-chloro-1,4-phenylene)bis(1H-benzo[d]imidazole-6,2-diyl))bis(oxy))bis(N,N-dimethylpropan-1-amine)] | 92.1 | 24.6 |  | 
CN1CCC(CNC(=O)c2ccc(-c3nc4cc(-c5ccc6[nH]c(-c7ccc(C(=O)NCC8CCN(C)CC8)cc7)nc6c5)ccc4[nH]3)cc2)CC1 [Compound 340] | −0.4 | 6.17 | −3.4 | 
CN(C)CCCOc1ccc2nc(-c3ccc(-c4nc5ccc(OCCCN(C)C)cc5[nH]4)c(OCCN=[N+]=[N-])c3)[nH]c2c1 [Compound 265, 3,3′-((2,2′-(2-(2-azidoethoxy)-1,4-phenylene)bis(1H-benzo[d]imidazole-6,2-diyl))bis(oxy))bis(N,N-dimethylpropan-1-amine)] | 84.3 | 16.6 |  | 
N=C(N)NCCNC(=O)c1ccc2nc(-c3ccc(-c4nc5ccc(C(=O)NCCNC(=N)N)cc5[nH]4)cc3)[nH]c2c1 [Compound 38] | 0.0 |  |  | 2.6
NCCCOc1ccc2nc(-c3ccc(-c4nc5ccc(OCCCN)cc5[nH]4)cc3)[nH]c2c1 [Compound 201, 3,3′-((1,4-phenylenebis(1H-benzo[d]imidazole-2,6-diyl))bis(oxy))bis(propan-1-amine)] | −13.2 | 16.4 |  | 
CN(C)CCCOc1ccc2[nH]c(-c3ccc(-c4nc5cc(OCCCN(C)C)ccc5[nH]4)c4c3OCCO4)nc2c1 [Compound 316] | 87.1 | 20.7 |  | 
CC(C)N(CCNC(=O)c1ccc(-c2nc3cc(-c4ccc5[nH]c(-c6ccc(C(=O)NCCN(C(C)C)C(C)C)cc6)nc5c4)ccc3[nH]2)cc1)C(C)C [Compound 113] | 45.3 |  | 7.9 | 12.6
C[C@@H](NC(=O)CNCCCn1cc(CCCCN(C)CCNC(=O)c2ccc(-c3nc4cc(-c5ccc6[nH]c(-c7ccc(OCCCN(C)C)cc7)nc6c5)ccc4[nH]3)cc2)nn1)C(=O)N[C@H](C)C(=O)N[C@H](C)C(=O)N[C@H](C)C(=O)N(CCCn1cc(CCCCN(C)CCNC(=O)c2ccc(-c3nc4cc(-c5ccc6[nH]c(-c7ccc(OCCCN(C)C)cc7)nc6c5)ccc4[nH]3)cc2)nn1)CC(N)=O [Compound 461] | −35.5 | 2.5 |  | 
CN1CCN(c2ccc(-c3nc4cc(-c5ccc6[nH]c(-c7ccc(N8CCN(C)CC8)cc7)nc6c5)ccc4[nH]3)cc2)CC1 [Compound 334] |  | 14.2 | 73.1 | 
CN(C)CCCCCOc1ccc(-c2nc3cc(-c4ccc5[nH]c(-c6ccc(OCCCCCN(C)C)cc6)nc5c4)ccc3[nH]2)cc1 [Compound 371] | 72.4 | 12.8 | 79.7 | 
COc1cc(-c2nc3ccc(OCCCN(C)C)cc3[nH]2)c(OC)cc1-c1nc2ccc(OCCCN(C)C)cc2[nH]1 [Compound 290] | 97.2 | 11.1 |  | 
c1cc(-c2nc3ccc(N4CCNCC4)cc3[nH]2)ccc1-c1nc2ccc(N3CCNCC3)cc2[nH]1 [Compound 150] | 41.0 |  |  | 29.6
